Experimental data taken from article PMC3071284 (Bioorganic & medicinal chemistry, 2011).

Legend:
[1] = cited from earlier work
[2] = test system: T. gondii tachyzoites; experiment: T. gondii tachyzoites growth inhibition assay; assay type: cell-based, Toxoplasma gondii; settings: result in words
[3] = molecular target: T1, T. cruzi farnesyl diphosphate synthase (TcFPPS) (Trypanosoma cruzi, UniProt Q8WS26); settings: cited from earlier work
T1 sequence (Q8WS26 64-425 limits assumed): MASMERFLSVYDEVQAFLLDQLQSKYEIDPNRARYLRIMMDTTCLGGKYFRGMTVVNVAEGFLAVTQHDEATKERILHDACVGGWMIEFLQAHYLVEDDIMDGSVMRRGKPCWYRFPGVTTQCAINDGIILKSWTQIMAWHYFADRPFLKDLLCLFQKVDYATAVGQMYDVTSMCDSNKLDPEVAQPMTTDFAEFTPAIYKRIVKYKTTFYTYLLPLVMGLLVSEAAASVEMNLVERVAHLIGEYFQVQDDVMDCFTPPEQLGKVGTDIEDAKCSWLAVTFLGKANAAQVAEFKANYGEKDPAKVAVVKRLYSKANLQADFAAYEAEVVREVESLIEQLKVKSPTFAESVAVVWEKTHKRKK

[4] = test system: T. cruzi-infected mice; settings: cited from earlier work

CN(C)c1ccc(C(=C2C=CC(=[N+](C)C)C=C2)c2ccc(N(C)C)cc2)cc1 [Crystal violet]
carcinogenicity in in vivo assays [1]: carcinogenic

CCCCCCCCCCNCC(P(=O)(O)O)P(=O)(O)O [Compound 24, 1-[(n-Dec-1-ylamino)ethyl] 1,1-bisphosphonic Acid]
antiparasitic activity against T. gondii cells [2]: practically devoid of antiparasitic activity

CCCCCCNCC(P(=O)(O)O)P(=O)(O)O [Compound 8]
mode of inhibition of TcFPPS [3]: competitive inhibitor

O=P(O)(O)C(O)(Cc1cccnc1)P(=O)(O)O [risedronate]
survival of T. cruzi-infected mice [4]: significantly increase survival
